Among the data in PubChem BioAssay (NCI) are TGI values, retold here.

Experiment in all cases: growth of human tumour cells (NCI), 48 h
The subject of assay [1] is BT-549 breast.
Assay [2] has as its system HOP-62 NSCLC.
In assay [3] the test system is MALME-3M melanoma.
Assay [4] relates to MCF7 breast.
In assay [5] the test system is MDA-N.
The test system of assay [6] is SF-539 CNS.
Assay [7] concerns SK-MEL-5 melanoma.
The test system of assay [8] is SNB-75 CNS.
Assay [9] relates to SW-620 colon.
The subject of assay [10] is TK-10 renal.
For assay [11], the system named is UACC-257 melanoma.

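The compound was tested at five concentrations on cells cultured in 96-well plates, with a 48-hour exposure period. TGI: total growth inhibition.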

For the compound `COc1ccc(-n2c(Cn3nnc(-c4cccnc4)n3)nn(C3OC(COC(=O)c4ccccc4)C(OC(=O)c4ccccc4)C3OC(=O)c3ccccc3)c2=S)cc1` (configuration not stated), the TGI in [1], in assay [2], in assay [3], in assay [4], in assay [5] and in [6] was > 100 µM in each case. Further, the TGI in assay [7], in assay [8], in [9], in assay [10] and in assay [11] was > 100 µM in each case.

On to `Cc1cnc2c(c1)C(=O)N(c1ccc([N+](=O)[O-])cc1)S2(=O)=O`, for which the TGI was > 100 µM in assay [1]; > 100 µM in assay [2]; 63.4 µM in assay [3]; > 100 µM in [4]; > 100 µM in [5]; > 100 µM in assay [6]. In addition, the TGI in assay [7], in assay [8], in assay [9], in assay [10] and in assay [11] was > 100 µM each time.

On to `O=C1CCSc2nc(-c3ccc4c(c3)OCO4)nn21`, for which the TGI in [1], in [2], in assay [3], in assay [4], in assay [5] and in assay [6] was > 10 µM throughout. The TGI in assay [7], in assay [8], in [9], in assay [10] and in [11] was > 10 µM throughout.

`CCc1ccc(Nc2cc(=O)n(C)c(SCc3ccccc3)n2)cc1`: the TGI in assay [1], in assay [2], in assay [3], in assay [4], in assay [5] and in [6] was > 100 µM throughout. The TGI in [7], in assay [8], in [9], in assay [10] and in assay [11] was > 100 µM in each case.

With `Cc1c(-c2nc(N)c(C#N)c(N)c2C#N)c(=O)oc2ccccc12`, the TGI in [1], in assay [2], in assay [3], in assay [4], in assay [5] and in assay [6] was > 100 µM in each case. Moreover, the TGI in [7], in [8], in assay [9], in assay [10] and in assay [11] was > 100 µM in each case.

As to `O=C(NCCc1ccccc1)c1cc(/C=C/c2cc(O)ccc2O)ccc1O`, the TGI in [1] was 3.7 µM; in assay [2] it was 11.9 µM; in assay [3] it was 5.07 µM; in assay [4], 9.42 µM; in [5], 9.81 µM; in assay [6], 5.94 µM. For the same compound, the TGI in assay [7] was 7.32 µM; in assay [8] it was 13.7 µM; in assay [9] it was > 45.5 µM; in assay [10], 7.16 µM; in assay [11], 8.57 µM.

As for `O=C1CCN2C(=N1)Sc1ccccc12`, the TGI in [1], in [2], in assay [3], in assay [4], in assay [5] and in assay [6] was > 100 µM throughout. Besides, the TGI in [7], in assay [8], in assay [9], in [10] and in [11] was > 100 µM throughout.

Regarding `CC[C@@H]1CC[C@@H]2[C@H](CC[C@]3(C)[C@@H](OC(C)=O)CC[C@@H]23)[C@H]1C(=O)OC`, the TGI in assay [1] was > 100 µM; in assay [2], 53.7 µM; in assay [3], 33.3 µM; in assay [4] it was 60.3 µM; in assay [5], 41.4 µM; in [6], 38.3 µM. In addition, the TGI in assay [7] is 27.7 µM; in assay [8] it was 69 µM; in [9] it was 48.8 µM; in [10], > 100 µM; in assay [11] it was 54.3 µM.

In the case of `Cc1c2ccccc2c(C2C3C(=O)N(c4cccc5ccccc45)C(=O)C3ON2Cc2ccc(CC(N)=O)cc2)c2ccccc12` (configuration not stated), the TGI in assay [1] is > 50 µM; in assay [2], > 50 µM; in [3] it was > 50 µM; in [4], > 50 µM; in [5] it was 35.6 µM; in [6], > 50 µM. Moreover, the TGI in assay [7] was > 50 µM; in assay [8] it was 43.5 µM; in assay [9], > 50 µM; in [10], > 50 µM; in assay [11], 37 µM.

As for `O=C(CCc1ccc(O)c(O)c1)NCCc1cc(O)c(O)c(O)c1`, the TGI was 31.1 µM in [1]; > 100 µM in assay [2]; > 100 µM in assay [3]; 21.7 µM in [4]; 30.6 µM in assay [5]; > 100 µM in [6]. Also, the TGI in assay [7] was 66.2 µM; in [8], > 100 µM; in assay [9], 35.5 µM; in assay [10], > 100 µM; in assay [11] it was > 100 µM.

For `CCCNCC(O)CNc1ccc(NCC(O)CNCCC)c2c1C(=O)c1ccccc1C2=O` (configuration not stated), the TGI was found to be 6.99 µM in [1]; 8 µM in assay [2]; 11.3 µM in assay [3]; 7.5 µM in assay [4]; 11.7 µM in assay [5]; 5.11 µM in [6]. Also, the TGI was found to be 9.76 µM in [7]; 8.83 µM in assay [8]; 7.21 µM in [9]; 22.2 µM in assay [10]; 17.6 µM in assay [11].

Turning to `COC(=O)c1ccc(C)cc1C1CN=NC12Cc1cc(C)ccc1C2=O` (configuration not stated), the TGI in assay [1] was > 85.7 µM; in assay [2], > 100 µM; in [3], > 100 µM; in assay [4] it was 24 µM; in assay [5] it was 6.11 µM; in assay [6] it was 36.2 µM. Besides, the TGI in assay [7] was 21.6 µM; in [8], > 68.1 µM; in assay [9], > 100 µM; in assay [10], 71.7 µM; in assay [11], > 94.2 µM.
